“And” between values parts separate entries of the source, which are not always exact repeats. Equal values may be shown once.
Key:
[1] = system: adult dissociated dorsal root ganglia neurons on gradients of CSPG; experiment: spot assay: processes crossing CSPG (aggrecan) gradient; type: cell-based, rat; settings: for neurons extend processes that cross CSPG gradients: peptide added at time of plating
Experimental: Adult female rat sensory dorsal root ganglion (DRG) neurons were obtained and grown on gradients of the chondroitin sulfate proteoglycan aggrecan as previously described. Glass bottom delta-T time-lapse dishes were coated with Poly-L-Lysine (PLL) and incubated at room temperature overnight. Spots were created by dissolving 2 mg/ml aggrecan in calcium and magnesium free hanks balanced salt solution (HBSS). Eight 2 μl dots were placed into one half of each dish and given ample time to dry onto the glass. The dishes were finally coated in 10 μg/ml laminin for 3 hours at 37° C. Following incubation, six thousand adult dissociated DRG neurons were added to each dish in neural basal-A media supplemented with Glutamax, Penn/strep and B27. […] In this Example, the spot assay was conducted on glass coverslips with a few alterations from the technique used for time-lapse microscopy. Following PLL treatment, the coverslips were dried and coated with a small amount of nitrocellulose to increase adhesive interactions needed for spot formation. Following drying of nitrocellulose, 4 spots were dotted onto each coverslip (one in each quadrant) using 700 μg/ml aggrecan, 5 μg/ml laminin dissolved into HBSS. Following drying, the coverslips were coated in 5 μg/ml laminin at 37 degrees C. for 3 hours. 2,000 adult dissociated dorsal root ganglia neurons were added to each coverslip in neural basal-A media supplemented with Glutamax, Penn/strep and B27. In addition, peptides were added at the required concentration at the time of plating. Cells were allowed to grow for 5 days prior to fixation in 4% Paraformaldehyde. These peptides were ordered from Genscript and dissolved in water and stored long-term at −80° C. Peptides were added to media at time of neuronal plating. After 5 days in vitro, the cells were fixed and stained for mouse anti-B3Tubulin (green). The number of processes completely spanning the gradient were counted and normalized to the number of neuronal cell bodies on each individual spot.

[2] = system: contusive spinal cord injury in adult female Sprague-Dawley rats; experiment: Basso, Beattie and Bresnahan (BBB) scale for post-SCI locomotion; type: in vivo, rat; settings: for BBB recovery over the course of the next 10 weeks: after 2 weeks post injury; for BBB recovery over the course of the next 10 weeks / average BBB score: 5 μM, 500 μl subcutaneously daily
Experimental: (§1) This Example describes methods of generating a moderate/severe contusive spinal cord injury with the Infinite Horizon device in adult female Sprague-Dawley rats for spinal cord injury (SCI) assays used in Examples 5-8. Briefly, rats were deeply anesthetized with a cocktail of ketamine/xylazine. Once under, the back was shaved and sterilized with Iodine and ethanol. Using a dorsal entry, the […] vertebrae 7-10 were exposed by a skin incision and at segments 8 and 9 a laminectomy was performed to expose the intact spinal cord. The spinal column and cord were stabilized in a stereotaxic frame prior to contusive impact. Finally, rats underwent a 250 kd Infinite Horizon contusion centered at the midline with no dwell time. Following muscle suturing and skin stapling, the animals were placed on a 37° C. hot pad and allowed ample access to food and water upon awakening from surgery. Pain was monitored, and animals in distress received a low dose of Marcaine at the injection site. Saline and Gentamycin (antibiotic) were given for 5 days post-surgery to prevent bladder infections. This experiment was performed start to finish 3 times. N−=15 ISP, N=11 vehicle and N=6 ILP.
(§2) Animals were randomly divided into three groups, vehicle control, ISP, or ILP. Lyophilized ISP or ILP peptide was first dissolved in sterile water at a concentration of 2.5 mM. To create individual treatments for each animal, the peptide was further diluted to a concentration of 5 μM in a vehicle solution of 5% DMSO in sterile saline. 25 ml of each treatment (ILP, ISP or vehicle) was alliquoted into 50 individual Eppendorf tubes, each containing 500 μl. The drugs were stored at −20 and thawed immediately prior to use. Each animal received 500 μl of either vehicle, 5 μM ISP or 5 μM ILP subcutaneously into the back above the lesion each day, starting 1 day after injury and lasting 7 weeks (49 treatments, 11 μg/rat/day).
Animals were allowed to freely roam on a table-top for three minutes while their hindlimb movements and locomotor patterns were being scored by a blinded observer according to the Basso, Beattie and Bresnahan scale for post-SCI locomotion (Basso et al, 1995). Behavior was performed at post injury days 1, 4, 7 and then weekly for 10 additional weeks. Statistical analysis was conducted by repeated measures 2 way Anova.

[3] = system: contusive spinal cord injury in adult female Sprague-Dawley rats; experiment: grid-walk test after spinal cord injury; type: in vivo, rat; settings: 12 weeks after spinal cord injury; for foot faults in the grid walk test versus vehicle: vehicle 6 foot-faults per meter
Experimental: as §1
(§3) Animals were randomly divided into three groups, vehicle control, ISP, or ILP. Lyophilized ISP or ILP peptide was first dissolved in sterile water at a concentration of 2.5 mM. To create individual treatments for each animal, the peptide was further diluted to a concentration of 5 μM in a vehicle solution of 5% DMSO in sterile saline. 25 ml of each treatment (ILP, ISP or vehicle) was alliquoted into 50 individual Eppendorf tubes, each containing 500 μl. The drugs were stored at −20 and thawed immediately prior to use. […]
Animals were allowed to freely roam on a wire grid (100 cm×75 cm, with 1 cm^2 gaps in the wire) 12 weeks after spinal cord injury. While an overhead camera tracked and calculated the total distance traveled (Ethovision), the number of foot-faults was counted manually by a blinded observer. […]

[4] = system: contusive spinal cord injury in adult female Sprague-Dawley rats; experiment: urinary behavior in metabolic cages after spinal cord injury; type: in vivo, rat
Experimental: as §1, §2
Animals were placed in metabolic cages overnight for a dark cycle (16 hours). The urine was separated and collected into a syringe linked to a force transducer. The increase in force corresponding to each individual void was plotted in spike-2. The graphs were sampled into excel and manually confirmed to count the total number of voids and the average volume of each void.

full length LAR = full length LAR (Homo sapiens, UniProt P10586); experiment: pull-down assays, wedge domain with full length LAR; type: binding
PTPσ = PTPσ (Homo sapiens, UniProt Q13332); experiment: pull-down assays, wedge domain with PTPσ; type: binding
[5] = system: growth cones of adult sensory DRG neurons on gradients of CSPG aggrecan; experiment: time-lapse microscopy of growth cone motility in CSPG spot assay; type: cell-based, rat; settings: 4-6 days in vitro
Experimental: Adult female rat sensory dorsal root ganglion (DRG) neurons were obtained and grown on gradients of the chondroitin sulfate proteoglycan aggrecan as previously described. Glass bottom delta-T time-lapse dishes were coated with Poly-L-Lysine (PLL) and incubated at room temperature overnight. Spots were created by dissolving 2 mg/ml aggrecan in calcium and magnesium free hanks balanced salt solution (HBSS). Eight 2 μl dots were placed into one half of each dish and given ample time to dry onto the glass. The dishes were finally coated in 10 μg/ml laminin for 3 hours at 37° C. Following incubation, six thousand adult dissociated DRG neurons were added to each dish in neural basal-A media supplemented with Glutamax, Penn/strep and B27. The cells were allowed to grow for 4-6 days Immediately prior to the start of time lapse, the delta T dishes were sealed with a glass coverslip. 100× time-lapse microscopy was performed with a heated objective and heated stage to keep the cells at 37 degrees. Images were obtained every 30 seconds and stitched together to create a time lapse movie. Growth cone and filopodial dynamics were tracked and quantified manually with Metamorph.

[6] = system: contusive spinal cord injury in adult female Sprague-Dawley rats; experiment: terminal urodynamic analyses after spinal cord injury; type: in vivo, rat; settings: 14 weeks post injury
Experimental: as §1, with “ILP. […]” for “ILP.”
In a terminal experiment, animals were anesthetized with Urethane at 14 weeks post injury. […] Both muscle activity and pressure (measured through the catheter) were plotted in spike2.

[7] = system: 5HT expression in the lumbar spinal cord; experiment: 5HT expression (axonal density) in lumbar spinal cord after spinal cord injury; type: in vivo, rat
Experimental: as §1, §3
For axonal density analysis, the gray matter was outlined and mean pixel intensity was calculated in ImageJ. […] One section selected randomly every 200 μm was analyzed over a total distance of 2 cm […]. […]

[8] = system: contusive spinal cord injury in adult female Sprague-Dawley rats; experiment: recovery beyond vehicle across behaviors after spinal cord injury; type: in vivo, rat
Experimental: as §1
Animals were randomly divided into three groups, vehicle control, ISP, or ILP. Lyophilized ISP or ILP peptide was first dissolved in sterile water at a concentration of 2.5 mM. […]

Sequence of full length LAR (P10586 30-1907, species assumed): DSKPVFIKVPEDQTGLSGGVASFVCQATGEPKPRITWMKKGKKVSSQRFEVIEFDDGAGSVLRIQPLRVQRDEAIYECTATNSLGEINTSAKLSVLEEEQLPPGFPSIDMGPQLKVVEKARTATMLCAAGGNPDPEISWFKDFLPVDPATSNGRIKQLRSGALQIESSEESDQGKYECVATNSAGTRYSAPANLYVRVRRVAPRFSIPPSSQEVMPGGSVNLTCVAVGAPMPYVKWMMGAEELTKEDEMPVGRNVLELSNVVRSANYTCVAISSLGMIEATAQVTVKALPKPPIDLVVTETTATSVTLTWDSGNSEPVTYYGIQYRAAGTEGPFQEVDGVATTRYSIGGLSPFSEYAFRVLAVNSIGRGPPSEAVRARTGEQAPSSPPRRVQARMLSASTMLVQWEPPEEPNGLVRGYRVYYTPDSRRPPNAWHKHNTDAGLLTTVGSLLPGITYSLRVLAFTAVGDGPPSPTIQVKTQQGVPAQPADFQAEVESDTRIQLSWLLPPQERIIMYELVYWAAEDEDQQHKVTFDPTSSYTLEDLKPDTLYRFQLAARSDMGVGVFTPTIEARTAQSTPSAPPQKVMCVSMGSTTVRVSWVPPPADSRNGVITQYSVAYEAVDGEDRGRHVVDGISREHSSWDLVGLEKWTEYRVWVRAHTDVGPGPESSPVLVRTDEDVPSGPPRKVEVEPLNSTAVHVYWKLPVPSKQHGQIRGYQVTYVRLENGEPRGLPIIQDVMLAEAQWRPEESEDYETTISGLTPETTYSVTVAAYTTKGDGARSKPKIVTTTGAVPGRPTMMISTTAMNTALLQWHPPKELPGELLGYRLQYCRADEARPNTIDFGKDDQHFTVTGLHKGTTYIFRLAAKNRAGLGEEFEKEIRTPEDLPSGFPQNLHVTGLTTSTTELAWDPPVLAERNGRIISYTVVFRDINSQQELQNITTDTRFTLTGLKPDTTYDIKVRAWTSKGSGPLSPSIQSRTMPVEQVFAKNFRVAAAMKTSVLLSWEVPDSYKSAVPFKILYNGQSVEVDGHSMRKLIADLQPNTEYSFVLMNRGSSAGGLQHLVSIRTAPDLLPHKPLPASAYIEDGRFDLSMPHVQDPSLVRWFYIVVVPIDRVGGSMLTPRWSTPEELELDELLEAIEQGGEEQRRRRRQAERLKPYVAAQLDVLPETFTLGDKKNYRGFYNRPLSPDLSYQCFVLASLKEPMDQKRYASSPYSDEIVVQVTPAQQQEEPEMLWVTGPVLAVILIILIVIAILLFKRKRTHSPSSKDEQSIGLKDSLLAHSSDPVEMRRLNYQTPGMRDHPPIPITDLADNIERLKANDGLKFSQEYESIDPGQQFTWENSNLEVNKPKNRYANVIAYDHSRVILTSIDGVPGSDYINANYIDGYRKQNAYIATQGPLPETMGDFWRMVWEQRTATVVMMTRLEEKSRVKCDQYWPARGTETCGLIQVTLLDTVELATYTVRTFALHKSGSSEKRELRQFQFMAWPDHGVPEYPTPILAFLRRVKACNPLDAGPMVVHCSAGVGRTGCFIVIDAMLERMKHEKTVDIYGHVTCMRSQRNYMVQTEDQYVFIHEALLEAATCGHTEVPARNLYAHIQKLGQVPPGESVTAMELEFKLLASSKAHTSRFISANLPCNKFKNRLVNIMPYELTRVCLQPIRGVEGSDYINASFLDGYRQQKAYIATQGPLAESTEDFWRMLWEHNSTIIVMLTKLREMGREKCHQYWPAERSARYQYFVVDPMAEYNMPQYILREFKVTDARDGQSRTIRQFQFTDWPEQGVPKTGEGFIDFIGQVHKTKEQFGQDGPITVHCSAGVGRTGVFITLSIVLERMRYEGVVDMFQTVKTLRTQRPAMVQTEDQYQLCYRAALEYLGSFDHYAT
Sequence of PTPσ (Q13332 30-1948): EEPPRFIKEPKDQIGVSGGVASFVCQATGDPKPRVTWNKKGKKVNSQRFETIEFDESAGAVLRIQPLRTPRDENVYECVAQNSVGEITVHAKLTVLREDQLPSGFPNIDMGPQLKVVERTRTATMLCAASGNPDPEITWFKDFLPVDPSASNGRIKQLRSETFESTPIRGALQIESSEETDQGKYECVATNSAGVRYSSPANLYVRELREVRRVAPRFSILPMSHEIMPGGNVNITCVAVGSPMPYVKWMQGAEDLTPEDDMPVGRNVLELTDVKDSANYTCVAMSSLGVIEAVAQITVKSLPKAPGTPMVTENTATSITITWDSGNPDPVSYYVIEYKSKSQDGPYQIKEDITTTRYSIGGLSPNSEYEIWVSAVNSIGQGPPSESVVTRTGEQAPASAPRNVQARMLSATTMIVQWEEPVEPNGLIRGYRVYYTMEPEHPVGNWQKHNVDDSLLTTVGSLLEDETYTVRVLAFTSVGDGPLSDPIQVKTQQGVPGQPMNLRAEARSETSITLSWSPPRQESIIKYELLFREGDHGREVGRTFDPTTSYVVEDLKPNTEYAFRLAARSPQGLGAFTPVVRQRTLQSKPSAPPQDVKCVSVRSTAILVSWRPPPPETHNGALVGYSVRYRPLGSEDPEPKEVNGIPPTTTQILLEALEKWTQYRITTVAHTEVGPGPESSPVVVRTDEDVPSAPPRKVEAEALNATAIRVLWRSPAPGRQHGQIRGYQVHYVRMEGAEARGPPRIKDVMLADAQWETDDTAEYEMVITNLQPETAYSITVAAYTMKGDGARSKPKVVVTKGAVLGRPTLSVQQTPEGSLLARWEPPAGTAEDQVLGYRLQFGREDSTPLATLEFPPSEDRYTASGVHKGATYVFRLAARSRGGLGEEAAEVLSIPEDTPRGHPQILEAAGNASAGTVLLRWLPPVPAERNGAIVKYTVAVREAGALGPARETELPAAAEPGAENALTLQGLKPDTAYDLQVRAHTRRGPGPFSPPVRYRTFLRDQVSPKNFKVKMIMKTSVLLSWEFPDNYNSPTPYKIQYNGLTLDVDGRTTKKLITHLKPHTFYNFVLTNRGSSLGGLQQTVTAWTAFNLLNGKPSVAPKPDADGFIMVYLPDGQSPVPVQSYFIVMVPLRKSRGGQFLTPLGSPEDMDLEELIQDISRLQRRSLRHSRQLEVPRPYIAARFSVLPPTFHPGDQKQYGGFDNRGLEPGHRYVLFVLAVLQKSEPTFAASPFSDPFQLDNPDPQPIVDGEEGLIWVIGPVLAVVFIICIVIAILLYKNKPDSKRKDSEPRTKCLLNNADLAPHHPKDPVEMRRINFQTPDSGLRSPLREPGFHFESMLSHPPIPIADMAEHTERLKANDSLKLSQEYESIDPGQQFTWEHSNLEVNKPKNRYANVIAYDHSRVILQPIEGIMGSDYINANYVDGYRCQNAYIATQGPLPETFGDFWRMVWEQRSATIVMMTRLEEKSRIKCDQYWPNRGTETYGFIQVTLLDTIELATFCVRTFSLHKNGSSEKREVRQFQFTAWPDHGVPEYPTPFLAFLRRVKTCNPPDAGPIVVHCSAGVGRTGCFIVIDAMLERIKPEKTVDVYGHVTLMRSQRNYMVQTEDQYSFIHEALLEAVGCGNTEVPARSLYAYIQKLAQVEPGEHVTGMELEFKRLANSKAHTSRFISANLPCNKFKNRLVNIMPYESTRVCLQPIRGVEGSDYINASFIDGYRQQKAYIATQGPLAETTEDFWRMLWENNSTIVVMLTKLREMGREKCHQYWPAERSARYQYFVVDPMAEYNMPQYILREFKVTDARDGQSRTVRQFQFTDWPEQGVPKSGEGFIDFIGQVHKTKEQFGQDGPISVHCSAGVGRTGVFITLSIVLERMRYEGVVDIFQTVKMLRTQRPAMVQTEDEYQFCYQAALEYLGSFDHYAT

Substance: NH2GRKKRRQRRRCDLADNIERLKANDGLKFSQEYESI-NH2 (H-GRKKRRQRRRCDLADNIERLKANDGLKFSQEYESI-NH2; listed as Homo sapiens) [ILP, LAR wedge domain peptide conjugated to HIV-TAT]
- neurons extend processes that cross CSPG gradients ([1]; 5 days in vitro): also allows neurons to traverse gradients of CSPG
- BBB recovery over the course of the next 10 weeks [2]: recovered only slightly beyond this point
- foot faults in the grid walk test versus vehicle [3]: very slight insignificant improvement
- void frequency (absolute) ([4]; naïve animals urinate twice per hour): once every two hours
- volume/void ([4]; versus naïve animals): significantly increased

Substance: DLADNIERLKANDGLKFSQEYESI (listed as Rattus rattus) [wedge domain of LAR, 24 amino acid wedge-shaped helix-loop-helix motif of LAR used in pull-down assays]
- interaction with full length LAR (full length LAR): able to specifically interact with full length LAR
- binding to sigma (PTPσ): unable to bind to sigma

Substance: NH2GRKKRRQRRRCDMAEHMERLKANDSLKLSQEYESI-NH2 [ISP]
- dose dependence of gradient crossing [1]: dose dependent
- concentration giving optimal crossing of CSPG gradient ([1]; 5 days in vitro): 2.5 μm
- neurons extend processes that cross CSPG gradients ([1]; 5 days in vitro): allows neurons to extend processes that cross CSPG gradients
- axonal stabilization and over adhesion in time-lapse [5]: prevented axonal stabilization and over adhesion
- growth cones still motile ([5]; 8% in the control condition): 65%
- average BBB score ([2]; 6 weeks): 12
- average BBB score ([2]; 7 weeks): greater than 13
- BBB recovery over the course of the next 10 weeks [2]: continued to recover
- BBB score reached by individual animals ([2]; individual animals): 19 and 18.5
- animals that regained at least frequent coordinated stepping ([2]; rat, in vivo): 7 of 15
- foot faults made by several individual animals ([3]; several animals): less than 3 foot faults
- foot faults in the grid walk test versus vehicle [3]: significantly fewer foot faults
- recovery of void frequency ([4]; 4 or 8 weeks post injury): no significant recovery
- void frequency ([4]; 12 weeks post injury): significant increase in void frequency
- animals reaching naïve micturition frequency ([4]; rat, in vivo): multiple animals reaching normal (naïve) micturition frequency levels
- increase of post-injury void frequency on average ([4]; versus vehicle): two fold
- coordinated bladder contractions with external urethral sphincter bursting [6]: many animals recovered coordinated bladder contractions with patterned external urethral sphincter bursting
- 5HT staining throughout the gray matter ([7]; 14 weeks following spinal cord injury, lumbar spinal cord): dramatic increase
- quantified 5HT expression throughout the gray matter ([7]; FIG. 15): significantly increased
- 5HT expression in non-responders ([7]; the two ISP non-responders): did not show a dramatic rise
- animals with significant behavioral improvements ([8]; greater than two standard deviations better than vehicle mean): 13 of 15
- animals regaining significant function in all three behaviors ([8]; rat, in vivo): 4 animals

Substance: NH2GRKKRRQRRRCIREDDSLMLYALAQEKKESNMHES-NH2 (H-GRKKRRQRRRCIREDDSLMLYALAQEKKESNMHES-NH2; listed as Homo sapiens) [scrambled ISP-TAT peptide, reference compound]
- neurons extend processes that cross CSPG gradients ([1]; 5 days in vitro): Neither vehicle control nor the scrambled ISP-TAT peptide allowed neuronal extensions across the gradient
